Experimental data as given in ChEMBL document CHEMBL1152560, “Substituted 2-arylbenzothiazoles as kinase inhibitors: hit-to-lead optimization” (Bioorg Med Chem, 2009).

Legend:
[1] = target: Cyclin-dependent kinase 2/cyclin E1 (Homo sapiens) (UniProt P24864+P24941); assay: Residual activity of CDK2/Cyclin E at 0.1uM by microplate scintillation counting; format: protein-complex assay
[2] = target: Epidermal growth factor receptor (Homo sapiens, UniProt P00533); assay: Residual activity of wild type EGF-R at 0.1 uM by microplate scintillation counting
[3] = target: T1, Testis-specific serine/threonine-protein kinase 2 (Homo sapiens) (UniProt Q96PF2); assay: Residual activity of TSK2 at 10 uM by microplate scintillation counting
T1 sequence (whole entry): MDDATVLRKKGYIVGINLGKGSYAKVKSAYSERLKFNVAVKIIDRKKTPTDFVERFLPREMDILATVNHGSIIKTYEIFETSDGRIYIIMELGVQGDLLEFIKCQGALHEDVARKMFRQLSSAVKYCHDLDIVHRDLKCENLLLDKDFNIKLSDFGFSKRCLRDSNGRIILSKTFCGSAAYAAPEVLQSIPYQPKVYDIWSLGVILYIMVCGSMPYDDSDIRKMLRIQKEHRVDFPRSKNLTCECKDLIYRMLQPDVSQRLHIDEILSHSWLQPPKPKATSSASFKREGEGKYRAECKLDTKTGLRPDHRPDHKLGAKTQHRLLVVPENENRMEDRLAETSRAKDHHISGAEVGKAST

[4] = target: Wee1-like protein kinase (Homo sapiens) (UniProt P30291); assay: Residual activity of WEE1 at 10 uM by microplate scintillation counting
[5] = target: Calcium/calmodulin-dependent protein kinase type II subunit beta (Homo sapiens) (UniProt Q13554); assay: Residual activity of CAMK2B at 10 uM by microplate scintillation counting
[6] = target: CDK4/Cyclin D3 (Homo sapiens) (UniProt P11802+P30281); assay: Residual activity of CDK4/Cyclin D3 at 0.1 uM by microplate scintillation counting; format: protein-complex assay
[7] = tested on: Serine/threonine-protein kinase B-raf (Homo sapiens), P15056 [V600E]; assay: Residual activity of B-RAF V600E mutant at 1 uM by microplate scintillation counting
[8] = target: Misshapen-like kinase 1 (Homo sapiens) (UniProt Q8N4C8); assay: Residual activity of MINK1 at 10 uM by microplate scintillation counting
[9] = target: Serine/threonine-protein kinase PLK1 (Homo sapiens) (UniProt P53350); assay: Residual activity of PLK1 at 0.1 uM by microplate scintillation counting
[10] = target: T2, Mitogen-activated protein kinase 12 (Homo sapiens) (UniProt P53778); assay: Residual activity of p38-gamma at 10 uM by microplate scintillation counting
T2 sequence (whole entry): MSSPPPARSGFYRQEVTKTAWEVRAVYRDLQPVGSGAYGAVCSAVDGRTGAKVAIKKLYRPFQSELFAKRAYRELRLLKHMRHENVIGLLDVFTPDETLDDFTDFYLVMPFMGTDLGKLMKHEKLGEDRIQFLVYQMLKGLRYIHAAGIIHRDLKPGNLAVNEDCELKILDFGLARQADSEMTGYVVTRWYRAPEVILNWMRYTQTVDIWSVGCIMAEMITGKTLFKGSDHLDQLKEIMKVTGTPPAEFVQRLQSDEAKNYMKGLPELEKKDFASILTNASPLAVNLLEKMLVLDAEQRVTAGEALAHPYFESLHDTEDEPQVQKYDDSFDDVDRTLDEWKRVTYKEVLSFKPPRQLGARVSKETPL

[11] = target: Mast/stem cell growth factor receptor Kit (Homo sapiens) (UniProt P10721); assay: Residual activity of wild type KIT at 10 uM by microplate scintillation counting
Chain of Mast/stem cell growth factor receptor Kit (Homo sapiens) (P10721 whole entry): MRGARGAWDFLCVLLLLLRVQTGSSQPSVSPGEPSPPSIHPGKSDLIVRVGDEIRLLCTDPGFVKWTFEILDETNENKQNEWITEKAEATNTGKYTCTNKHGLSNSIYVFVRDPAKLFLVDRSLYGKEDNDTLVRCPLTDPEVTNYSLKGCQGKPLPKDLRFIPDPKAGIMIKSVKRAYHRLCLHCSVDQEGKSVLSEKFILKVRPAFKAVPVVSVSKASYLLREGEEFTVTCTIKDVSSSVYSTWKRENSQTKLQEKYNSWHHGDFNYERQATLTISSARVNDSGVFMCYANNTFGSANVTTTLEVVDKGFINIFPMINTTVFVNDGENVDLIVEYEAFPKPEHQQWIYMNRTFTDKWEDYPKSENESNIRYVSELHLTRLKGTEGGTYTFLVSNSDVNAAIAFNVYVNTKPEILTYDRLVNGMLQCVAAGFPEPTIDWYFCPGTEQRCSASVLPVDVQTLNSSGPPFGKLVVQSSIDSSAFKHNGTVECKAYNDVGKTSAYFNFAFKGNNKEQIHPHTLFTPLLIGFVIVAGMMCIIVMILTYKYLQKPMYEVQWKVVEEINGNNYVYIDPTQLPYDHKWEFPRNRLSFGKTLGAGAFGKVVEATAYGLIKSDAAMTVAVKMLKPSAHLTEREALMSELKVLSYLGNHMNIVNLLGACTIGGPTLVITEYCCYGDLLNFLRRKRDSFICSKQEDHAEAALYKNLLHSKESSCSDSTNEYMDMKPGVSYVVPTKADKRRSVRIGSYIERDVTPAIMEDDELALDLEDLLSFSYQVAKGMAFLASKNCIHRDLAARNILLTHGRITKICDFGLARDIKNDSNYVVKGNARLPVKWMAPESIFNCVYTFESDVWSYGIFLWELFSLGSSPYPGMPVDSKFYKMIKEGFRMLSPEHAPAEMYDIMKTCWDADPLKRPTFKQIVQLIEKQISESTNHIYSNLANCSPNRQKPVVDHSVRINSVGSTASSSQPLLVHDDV

[12] = target: Serine/threonine-protein kinase PLK2 (Homo sapiens) (UniProt Q9NYY3); assay: Residual activity of SNK at 10 uM by microplate scintillation counting
[13] = target: Glycogen synthase kinase-3 alpha (Homo sapiens) (UniProt P49840); assay: Residual activity of GSK3alpha at 0.1 uM by microplate scintillation counting
Chain of Glycogen synthase kinase-3 alpha (Homo sapiens) (P49840 2-483 limits assumed): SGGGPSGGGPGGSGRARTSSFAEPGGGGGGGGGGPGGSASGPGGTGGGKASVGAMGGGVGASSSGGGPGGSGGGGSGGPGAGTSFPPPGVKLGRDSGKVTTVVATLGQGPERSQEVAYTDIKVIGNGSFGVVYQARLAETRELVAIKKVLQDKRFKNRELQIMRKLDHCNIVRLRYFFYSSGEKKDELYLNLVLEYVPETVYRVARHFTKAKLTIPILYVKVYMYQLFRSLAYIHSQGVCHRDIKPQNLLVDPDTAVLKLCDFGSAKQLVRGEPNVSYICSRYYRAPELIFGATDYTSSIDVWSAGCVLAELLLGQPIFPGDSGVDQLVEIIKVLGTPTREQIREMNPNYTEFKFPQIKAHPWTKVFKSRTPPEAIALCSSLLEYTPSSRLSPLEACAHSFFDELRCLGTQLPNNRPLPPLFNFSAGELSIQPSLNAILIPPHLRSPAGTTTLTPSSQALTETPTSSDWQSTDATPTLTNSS

[14] = target: Ribosomal protein S6 kinase alpha-1 (Homo sapiens) (UniProt Q15418); assay: Residual activity of RPS6KA1 at 10 uM by microplate scintillation counting
[15] = target: Tyrosine-protein kinase JAK2 (Homo sapiens) (UniProt O60674); assay: Residual activity of JAK2 at 10 uM by microplate scintillation counting
Chain of Tyrosine-protein kinase JAK2 (Homo sapiens) (O60674 whole entry): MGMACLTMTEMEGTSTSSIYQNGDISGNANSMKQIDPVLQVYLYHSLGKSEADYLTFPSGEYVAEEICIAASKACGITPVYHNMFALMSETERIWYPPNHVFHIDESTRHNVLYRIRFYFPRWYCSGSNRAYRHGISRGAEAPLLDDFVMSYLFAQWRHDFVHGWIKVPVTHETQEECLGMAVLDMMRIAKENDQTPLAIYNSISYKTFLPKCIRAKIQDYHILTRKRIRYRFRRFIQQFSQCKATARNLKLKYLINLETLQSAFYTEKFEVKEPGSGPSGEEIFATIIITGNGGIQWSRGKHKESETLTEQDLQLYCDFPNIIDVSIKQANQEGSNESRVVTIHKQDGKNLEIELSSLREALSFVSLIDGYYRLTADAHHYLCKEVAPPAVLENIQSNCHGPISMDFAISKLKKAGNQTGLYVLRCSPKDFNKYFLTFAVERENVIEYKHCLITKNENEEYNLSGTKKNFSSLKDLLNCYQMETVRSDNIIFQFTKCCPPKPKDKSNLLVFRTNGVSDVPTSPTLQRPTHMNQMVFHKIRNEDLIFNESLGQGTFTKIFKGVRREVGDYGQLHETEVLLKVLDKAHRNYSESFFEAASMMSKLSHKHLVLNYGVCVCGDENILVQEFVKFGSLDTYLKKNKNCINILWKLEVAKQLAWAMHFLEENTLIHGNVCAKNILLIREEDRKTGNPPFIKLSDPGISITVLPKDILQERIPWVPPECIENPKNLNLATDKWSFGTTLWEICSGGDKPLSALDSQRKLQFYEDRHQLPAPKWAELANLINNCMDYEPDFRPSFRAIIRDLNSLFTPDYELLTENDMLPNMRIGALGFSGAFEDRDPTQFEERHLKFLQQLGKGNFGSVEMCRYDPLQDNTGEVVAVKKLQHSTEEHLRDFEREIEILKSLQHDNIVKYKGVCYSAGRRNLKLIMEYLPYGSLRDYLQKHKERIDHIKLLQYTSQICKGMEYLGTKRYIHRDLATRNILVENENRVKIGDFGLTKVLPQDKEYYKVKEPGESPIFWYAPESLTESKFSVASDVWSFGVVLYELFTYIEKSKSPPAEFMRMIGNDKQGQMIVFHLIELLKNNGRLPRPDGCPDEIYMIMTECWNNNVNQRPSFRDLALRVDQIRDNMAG

[16] = target: Homeodomain-interacting protein kinase 1 (Homo sapiens) (UniProt Q86Z02); assay: Residual activity of HIPK1 at 1 uM by microplate scintillation counting
[17] = target: T3, Tyrosine-protein kinase ZAP-70 (Homo sapiens) (UniProt P43403); assay: Residual activity of ZAP70 at 0.1 uM by microplate scintillation counting
T3 sequence (whole entry): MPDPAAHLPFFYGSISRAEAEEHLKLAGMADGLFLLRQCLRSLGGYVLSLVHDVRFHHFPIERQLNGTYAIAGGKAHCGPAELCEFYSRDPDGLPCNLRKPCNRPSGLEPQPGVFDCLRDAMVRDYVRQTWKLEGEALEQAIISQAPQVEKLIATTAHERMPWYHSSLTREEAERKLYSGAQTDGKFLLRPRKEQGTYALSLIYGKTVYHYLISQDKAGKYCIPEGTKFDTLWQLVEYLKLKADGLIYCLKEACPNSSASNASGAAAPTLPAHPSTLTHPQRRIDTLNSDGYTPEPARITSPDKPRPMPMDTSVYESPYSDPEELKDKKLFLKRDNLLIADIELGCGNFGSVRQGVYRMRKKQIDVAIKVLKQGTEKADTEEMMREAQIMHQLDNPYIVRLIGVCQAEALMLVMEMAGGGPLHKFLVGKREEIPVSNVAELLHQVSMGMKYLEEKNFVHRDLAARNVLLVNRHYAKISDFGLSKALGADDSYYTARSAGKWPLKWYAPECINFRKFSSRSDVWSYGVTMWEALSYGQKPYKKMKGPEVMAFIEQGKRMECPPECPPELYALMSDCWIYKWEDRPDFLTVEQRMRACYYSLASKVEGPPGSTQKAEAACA

[18] = target: Serine/threonine-protein kinase pim-2 (Homo sapiens) (UniProt Q9P1W9); assay: Residual activity of PIM2 at 0.1 uM by microplate scintillation counting
Chain of Serine/threonine-protein kinase pim-2 (Homo sapiens) (Q9P1W9 whole entry, looked up): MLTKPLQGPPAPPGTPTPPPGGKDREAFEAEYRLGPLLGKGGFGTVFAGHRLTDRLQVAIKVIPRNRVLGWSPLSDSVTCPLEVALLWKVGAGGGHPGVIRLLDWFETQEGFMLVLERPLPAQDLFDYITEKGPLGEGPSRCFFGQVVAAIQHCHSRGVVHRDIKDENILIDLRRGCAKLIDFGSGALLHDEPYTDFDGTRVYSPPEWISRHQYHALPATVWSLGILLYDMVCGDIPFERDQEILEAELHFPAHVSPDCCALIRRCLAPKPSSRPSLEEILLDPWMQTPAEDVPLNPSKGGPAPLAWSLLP

[19] = target: Serine/threonine-protein kinase WNK3 (Homo sapiens) (UniProt Q9BYP7); assay: Residual activity of WNK3 at 0.1 uM by microplate scintillation counting
Chain of Serine/threonine-protein kinase WNK3 (Homo sapiens) (Q9BYP7 whole entry): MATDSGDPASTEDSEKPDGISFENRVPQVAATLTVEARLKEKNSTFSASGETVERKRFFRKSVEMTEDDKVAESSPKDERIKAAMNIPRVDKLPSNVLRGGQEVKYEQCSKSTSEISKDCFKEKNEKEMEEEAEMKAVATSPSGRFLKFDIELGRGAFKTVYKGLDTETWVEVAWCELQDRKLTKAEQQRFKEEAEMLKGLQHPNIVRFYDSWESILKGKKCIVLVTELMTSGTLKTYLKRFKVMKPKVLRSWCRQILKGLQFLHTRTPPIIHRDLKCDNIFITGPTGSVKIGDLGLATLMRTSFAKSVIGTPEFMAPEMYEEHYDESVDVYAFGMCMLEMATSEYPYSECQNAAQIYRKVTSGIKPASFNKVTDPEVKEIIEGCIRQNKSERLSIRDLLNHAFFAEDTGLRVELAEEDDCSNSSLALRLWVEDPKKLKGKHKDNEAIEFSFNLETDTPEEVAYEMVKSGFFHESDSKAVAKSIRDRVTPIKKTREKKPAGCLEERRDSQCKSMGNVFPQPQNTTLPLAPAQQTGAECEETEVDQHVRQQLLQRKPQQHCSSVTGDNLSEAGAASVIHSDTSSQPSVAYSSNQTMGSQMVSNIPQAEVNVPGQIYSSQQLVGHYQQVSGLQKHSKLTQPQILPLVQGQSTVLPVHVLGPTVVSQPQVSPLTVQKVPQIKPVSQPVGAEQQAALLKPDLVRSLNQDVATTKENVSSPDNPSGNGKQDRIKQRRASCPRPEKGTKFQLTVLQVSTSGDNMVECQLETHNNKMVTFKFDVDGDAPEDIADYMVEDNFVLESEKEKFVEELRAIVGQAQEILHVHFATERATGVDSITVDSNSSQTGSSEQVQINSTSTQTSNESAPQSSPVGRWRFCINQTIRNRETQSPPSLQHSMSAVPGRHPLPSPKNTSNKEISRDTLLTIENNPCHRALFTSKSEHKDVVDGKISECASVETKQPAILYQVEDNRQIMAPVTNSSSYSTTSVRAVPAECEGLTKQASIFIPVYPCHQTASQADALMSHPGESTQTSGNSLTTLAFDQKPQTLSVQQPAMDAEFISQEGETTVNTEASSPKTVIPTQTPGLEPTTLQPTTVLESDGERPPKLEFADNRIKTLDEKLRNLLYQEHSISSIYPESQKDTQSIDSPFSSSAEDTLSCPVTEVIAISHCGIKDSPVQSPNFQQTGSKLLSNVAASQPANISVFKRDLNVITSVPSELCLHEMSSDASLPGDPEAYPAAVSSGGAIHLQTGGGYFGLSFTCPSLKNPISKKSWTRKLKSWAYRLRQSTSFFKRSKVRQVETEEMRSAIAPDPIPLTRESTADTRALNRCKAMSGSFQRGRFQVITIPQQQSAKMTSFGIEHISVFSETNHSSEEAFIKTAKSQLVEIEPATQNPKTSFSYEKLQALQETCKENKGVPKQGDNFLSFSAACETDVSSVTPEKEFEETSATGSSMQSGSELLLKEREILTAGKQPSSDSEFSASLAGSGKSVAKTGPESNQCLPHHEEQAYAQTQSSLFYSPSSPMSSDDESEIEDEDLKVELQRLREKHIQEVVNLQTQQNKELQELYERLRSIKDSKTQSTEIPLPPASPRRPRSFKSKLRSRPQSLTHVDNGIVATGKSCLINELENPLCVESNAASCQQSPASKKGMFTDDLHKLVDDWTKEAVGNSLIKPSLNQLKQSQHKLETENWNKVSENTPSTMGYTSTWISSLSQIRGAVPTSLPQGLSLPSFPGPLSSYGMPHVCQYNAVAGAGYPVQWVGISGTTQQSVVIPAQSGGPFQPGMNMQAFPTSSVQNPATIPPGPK

Row | Structure (SMILES) | residual activity [1] [%] | residual activity [2] [%] | residual activity [3] [%] | residual activity [4] [%] | residual activity [5] [%] | residual activity [6] [%] | residual activity [7] [%] | residual activity [8] [%] | residual activity [9] [%] | residual activity [10] [%] | residual activity [11] [%] | residual activity [12] [%] | residual activity [13] [%] | residual activity [14] [%] | residual activity [15] [%] | residual activity [16] [%] | residual activity [17] [%] | residual activity [18] [%] | residual activity [19] [%]
1 | COc1cc2c(Oc3ccc(-c4nc5ccccc5s4)cc3)ncnc2cc1OCCCN1CCN(C)CC1 | 86 | 94 | 109 | 2 | 67 | 98 | 86 | 21 | 94 | 136 | 30 | 108 | 103 | 206 | 67 | 82 | 112 | 64 | 90
2 | COc1cc2c(Oc3ccc(-c4nc5ccccc5s4)cc3)ncnc2cc1OCCCN1CCCC1 | 93 | 95 | 110 | 46 | 56 | 80 | 83 | 36 | 91 | 292 | 31 | 120 | 95 | 124 | 67 | 77 | 111 | 104 | 94
3 | COc1cc2c(Oc3ccc(-c4nc5ccccc5s4)cc3F)ncnc2cc1OCCCN1CCN(C)CC1 | 92 | 100 | 111 | 2 | 58 | 82 | 79 | 20 | 98 | 207 | 32 | 99 | 104 | 222 | 60 | 81 | 108 | 94 | 84
